# Laboratory results as given in US20230210116A1, “HONEYBEE REPELLENT” (EARTH CORPORATION, priority 2020, published 2023).
# Counter-ions that a name gives are not always drawn.
# What was measured:
# [1] = tested on: honeybees; experiment: Test for Confirmation of Honeybee Repelling Effect 1, 2, 3 (feeding station with 40% sugar water); format: in vivo; details: for Corrected repelling rate (%) Honeybees: Test 3, 5 mL
# Text: The following were used as the test samples for Examples: 2% by weight per volume ethanol solutions of octane (a-1), tetradecane (a-2), heptadecane (a-3), nonadecane (a-4), 2-acetylfuran (b-1), 5-methyl-2-furaldehyde (b-2), furfural (b-3), furaneol (c-1), 2-acetylpyrrole (d-1), 1-benzylpyrrole (d-2), 1-octanol (e-1), 1-dodecanol (e-2), and 1-octadecanol (e-3), respectively; and 2% by weight per volume aqueous solutions of furfuryl alcohol (b-4), sotolon (c-2), and α-angelicalactone (c-3), respectively.
# The following were used as the test samples for Comparative Examples: 2% by weight per volume ethanol solutions of eicosane (carbon number 20, p-1), heneicosane (carbon number 21, p-2), 2-methyloctane (branched alkane, p-3), tributyl o-acetylcitrate (p-4), and 1-methylpyrrole (p-5), respectively; and 2% by weight per volume aqueous solutions of 2-methyltetrahydrofuran-3-one (p-6) and acetic acid (p-7), respectively.
# Ethanol alone and water alone were used as samples for correction.
# The cotton pads 13 were impregnated with 40% sugar water (80 g), after which disposable wooden chopsticks 15 (80 mm in length) were placed over the cotton pads on the lid surface as “landing areas,” for use as “test insect (honeybee) feeding station 1” 10.
# A nest box of test insects (honeybees) (1 colony: approx. 6,000 bees) was placed at the center of a glass hothouse (bottom face: 5 m×10 m, height (highest part): 3 m, temperature: 25° C.), and the aforementioned “test insect (honeybee) feeding station 1” was installed at a location 2 meters away from the nest box.
# After confirming that at least five test insects (honeybees) were feeding at the above “test insect (honeybee) feeding station 1” installed in the hothouse, test 1 was conducted to measure the “approaching count (Mz)” and “landing count (My)” and calculate the “landing rate (Mx).”
# Next, the “test insect (honeybee) feeding station 1” installed in the hothouse was replaced with each “test insect (honeybee) feeding station 2” which was let to stand still for 5 minutes, after which test 2 was conducted to measure the “approaching count (Nz)” and “landing count (Ny)” and calculate the “landing rate (Nx).”
# Approaching count: Total number of times a honeybee has approached within 25 cm of the cotton wools at the feeding station during 5 minutes
# Landing count: Total number of honeybees that have remained for at least 1 second on the cotton pads at the feeding station during 5 minutes
# Landing rate (%): (Landing count/Approaching count)×100
# The “repelling rate Q” and “corrected repelling rate R” were calculated from the above “landing rates” using the calculation formula below. For the “repelling rate of sample for correction” used to calculate the “corrected repelling rate R,” the repelling rate of each of the samples for correction above (ethanol alone or water alone being a solvent for the active ingredient) was used.
# Repelling rate Q (%)={(Mx)−(Nx)}/(Mx)×100
# Corrected repelling rate R (%)={Repelling rate of test sample−Repelling rate of sample for correction}/{100−Repelling rate of sample for correction}×100
# The following were used as the test samples for Examples: 0.1% by weight per volume ethanol solutions of 3-methyl-2-butanol (e-4), carvacrol (x-1), isoeugenol (x-2), cinnamyl alcohol (x-3), diacetone alcohol (x-4), α-amylcinnamaldehyde (x-5), 3-methyl-2-butenal (x-6), valeraldehyde (x-7), ethyl cinnamate (x-8), methyl cinnamate (x-9), ethyl isovalerate (x-10), isoamyl formate (x-11), 5-ethyl-2-methylpyridine (x-12), 2-(3-phenylpropyl)pyridine (x-13), 2,6-dimethylpyridine (x-14), ß-ionone (x-15), 2-acetylthiazole (x-16), butylamine (x-17), and citronella oil (x-18), respectively; and a 0.1% by weight per volume aqueous solution of (3-amino-3-carboxypropyl)dimethylsulfonium chloride (x-19).
# [2] = tested on: stink bugs; experiment: Test for Confirmation of Stink Bug Behaviors against Active Ingredients 1, 2, 3 (treated filter paper); format: in vivo, southern green stink bugs
# Text: The test samples in “Test for Confirmation of Honeybee Repelling Effect 1” above were used.
# A liquid calcium carbonate/ethanol dispersion was applied on the entire interior wall of a KP cup (100 mm in diameter×90 mm in height) and air-dried, after which a filter paper (90 mm in diameter) was fixed on the bottom face of the KP cup using double-sided tape. A different filter paper (90 mm in diameter) was cut along its diameter and the resulting semicircle-shaped paper was uniformly treated with 400 μL of each test sample or sample for correction, and then placed over the filter paper fixed on the aforementioned bottom face of the KP cup by allowing the circular parts to overlap, for use as a testing device.
# The “repelling rate Y” and “corrected repelling rate Z” were calculated from the above “time A (sec)” and “time B (sec)” using the calculation formula below. For the “repelling rate of sample for correction” used to calculate the “corrected repelling rate Z,” the repelling rate of each of the samples for correction above (ethanol alone or water alone being a solvent for the active ingredient) was used.
# Corrected repelling rate Z (%)={Repelling rate of test sample−Repelling rate of sample for correction}/{100−Repelling rate of sample for correction}×100
# For the test samples, the test samples in “Test for Confirmation of Honeybee Repelling Effect 2” above were used.
# [3] = 0.1% by weight per volume solution
# [4] = Test 3, 0.1% by weight per volume solution, 400 μL
smiles,measurement,setting,value
"COc1ccc(C=O)cc1 [y-4, anisaldehyde]",Corrected repelling rate (%) Honeybees,[1]; [3],91.5%
same,Corrected repelling rate (%) Stinkbugs,"[2]; 0.5 h, 0.1 % strength",x (“x” for rates “not <0”)
"O=CC=Cc1ccccc1 [y-5, cinnamaldehyde]",honeybee repelling rate,"[1]; Test 3, summary in text",≥ 50%
same,Corrected repelling rate (%) Honeybees,[1]; [3],94.4%
same,repelling of stink bugs and other injurious insects to be exterminated (in words),[2],not repelling stink bugs
same,Corrected repelling rate (%) Stinkbugs,[2]; [4],∘
"CCOc1cc(C=O)ccc1O [y-6, ethyl vanillin]",Corrected repelling rate (%) Honeybees,[1]; [3],60.3%
same,Corrected repelling rate (%) Stinkbugs,"[2]; 0.5 h, 0.1 % strength",x (“x” for rates “not <0”)
"COc1cc(C=O)ccc1O [y-7, vanillin]",Corrected repelling rate (%) Honeybees,[1]; [3],61.2%
same,repelling of stink bugs and other injurious insects to be exterminated (in words),[2],not repelling stink bugs
same,Corrected repelling rate (%) Stinkbugs,[2]; [4],∘
"C=C(C)C1CC=C(C=O)CC1 (stereo not drawn) [y-8, perillaldehyde]",Corrected repelling rate (%) Honeybees,[1]; [3],94.7%
same,Corrected repelling rate (%) Stinkbugs,"[2]; 0.5 h, 0.1 % strength",x (“x” for rates “not <0”)
"CC/C=C/C=O [y-10, trans-2-pentenal]",Corrected repelling rate (%) Honeybees,[1]; [3],55.4%
same,repelling of stink bugs and other injurious insects to be exterminated (in words),[2],not repelling stink bugs
same,Corrected repelling rate (%) Stinkbugs,[2]; [4],∘
"CC(C)CC=O [y-14, isovaleraldehyde]",Corrected repelling rate (%) Honeybees,[1]; [3],65.5%
same,repelling of stink bugs and other injurious insects to be exterminated (in words),[2],not repelling stink bugs
same,Corrected repelling rate (%) Stinkbugs,[2]; [4],∘
"CCOC(=O)c1ccc(O)cc1 [y-17, ethyl 4-hydroxybenzoate]",Corrected repelling rate (%) Honeybees,[1]; [3],56.6%
same,repelling of stink bugs and other injurious insects to be exterminated (in words),[2],not repelling stink bugs
same,Corrected repelling rate (%) Stinkbugs,[2]; [4],∘
"CC(=O)OCC=Cc1ccccc1 [y-18, cinnamyl acetate]",Corrected repelling rate (%) Honeybees,[1]; [3],69.0%
same,repelling of stink bugs and other injurious insects to be exterminated (in words),[2],not repelling stink bugs
same,Corrected repelling rate (%) Stinkbugs,[2]; [4],∘
"CC(=O)OCCc1ccccc1 [y-20, phenethyl acetate]",Corrected repelling rate (%) Honeybees,[1]; [3],58.9%
same,repelling of stink bugs and other injurious insects to be exterminated (in words),[2],not repelling stink bugs
same,Corrected repelling rate (%) Stinkbugs,[2]; [4],∘
"CCCCC(CC)COC(=O)c1ccccc1O (stereo not drawn) [y-22, 2-ethylhexyl salicylate]",Corrected repelling rate (%) Honeybees,[1]; [3],23.7%
same,Corrected repelling rate (%) Stinkbugs,[2]; [4],∘
"CC(=O)OC/C=C(\C)CCC=C(C)C [y-27, geranyl acetate]",Corrected repelling rate (%) Honeybees,[1]; [3],68.0%
same,repelling of stink bugs and other injurious insects to be exterminated (in words),[2],not repelling stink bugs
same,Corrected repelling rate (%) Stinkbugs,[2]; [4],∘
"CC(C)=CCC/C(C)=C/COC=O [y-28, geranyl formate]",Corrected repelling rate (%) Honeybees,[1]; [3],98.0%
same,repelling of stink bugs and other injurious insects to be exterminated (in words),[2],not repelling stink bugs
same,Corrected repelling rate (%) Stinkbugs,[2]; [4],∘
"COC(=O)c1ccccc1N [y-33, methyl anthranilate]",Corrected repelling rate (%) Honeybees,[1]; [3],51.0%
same,repelling of stink bugs and other injurious insects to be exterminated (in words),[2],not repelling stink bugs
same,Corrected repelling rate (%) Stinkbugs,[2]; [4],∘
"CCCCCCCCCCCC(=O)OCCCC [y-37, butyl laurate]",Corrected repelling rate (%) Honeybees,[1]; [3],33.0%
same,Corrected repelling rate (%) Stinkbugs,[2]; [4],∘
"C=CCCCCCCCCC(=O)OCC [y-39, ethyl 10-undecenoate]",Corrected repelling rate (%) Honeybees,[1]; [3],75.8%
same,repelling of stink bugs and other injurious insects to be exterminated (in words),[2],not repelling stink bugs
same,Corrected repelling rate (%) Stinkbugs,[2]; [4],∘
"CCCCCCCCCCCC(=O)OCC [y-41, ethyl laurate]",Corrected repelling rate (%) Honeybees,[1]; [3],59.6%
same,repelling of stink bugs and other injurious insects to be exterminated (in words),[2],not repelling stink bugs
same,Corrected repelling rate (%) Stinkbugs,[2]; [4],∘
"CCOC(=O)CC(C)(C)C [y-42, ethyl tert-butylacetate]",Corrected repelling rate (%) Honeybees,[1]; [3],27.7%
same,Corrected repelling rate (%) Stinkbugs,[2]; [4],∘
"C=CCOC(=O)CCC1CCCCC1 [y-43, allyl cyclohexanepropionate]",Corrected repelling rate (%) Honeybees,[1]; [3],90.4%
same,repelling of stink bugs and other injurious insects to be exterminated (in words),[2],not repelling stink bugs
same,Corrected repelling rate (%) Stinkbugs,[2]; [4],∘
"C=CCOC(=O)Cc1ccccc1 [y-44, allyl phenylacetate]",Corrected repelling rate (%) Honeybees,[1]; [3],73.6%
same,repelling of stink bugs and other injurious insects to be exterminated (in words),[2],not repelling stink bugs
same,Corrected repelling rate (%) Stinkbugs,[2]; [4],∘
"CCCCOC(C)=O [y-46, butyl acetate]",Corrected repelling rate (%) Honeybees,[1]; [3],40.2%
same,Corrected repelling rate (%) Stinkbugs,"[2]; 0.5 h, 0.1 % strength",x (“x” for rates “not <0”)
"C=CCOC(=O)CCCCC [y-49, allyl hexanoate]",Corrected repelling rate (%) Honeybees,[1]; [3],33.5%
same,Corrected repelling rate (%) Stinkbugs,[2]; [4],∘
"CCCC(=O)OCCC(C)C [y-51, isoamyl butyrate]",Corrected repelling rate (%) Honeybees,[1]; 2.0% by weight per volume solution,75.9%
same,repelling of stink bugs and other injurious insects to be exterminated (in words),[2],not repelling stink bugs
same,Corrected repelling rate (%) Stinkbugs,"[2]; Test 3, 2.0% by weight per volume solution, 400 μL",∘
"CCCCCCC(=O)OCC [y-54, ethyl heptanoate]",Corrected repelling rate (%) Honeybees,[1]; [3],20.9%
same,Corrected repelling rate (%) Stinkbugs,[2]; [4],∘
"c1cnccn1 [y-57, pyrazine]",Corrected repelling rate (%) Honeybees,[1]; [3],51.3%
same,repelling of stink bugs and other injurious insects to be exterminated (in words),[2],not repelling stink bugs
same,Corrected repelling rate (%) Stinkbugs,[2]; [4],∘
"CCCCCCCC1CCCC(=O)O1 (stereo not drawn) [y-65, δ-dodecalactone]",Corrected repelling rate (%) Honeybees,[1]; [3],86.6%
same,repelling of stink bugs and other injurious insects to be exterminated (in words),[2],not repelling stink bugs
same,Corrected repelling rate (%) Stinkbugs,[2]; [4],∘
"CCCCCC1CCCCC(=O)O1 (stereo not drawn) [y-66, 6-undecanolactone]",Corrected repelling rate (%) Honeybees,[1]; [3],69.3%
same,repelling of stink bugs and other injurious insects to be exterminated (in words),[2],not repelling stink bugs
same,Corrected repelling rate (%) Stinkbugs,[2]; [4],∘
"CCCC(=O)O [y-73, butyric acid]",Corrected repelling rate (%) Honeybees,[1]; [3],33.0%
same,Corrected repelling rate (%) Stinkbugs,[2]; [4],∘
"COc1ccc(C(=O)O)cc1OC [y-75, 3,4-dimethoxybenzoic acid]",Corrected repelling rate (%) Honeybees,[1]; [3],70.6%
same,repelling of stink bugs and other injurious insects to be exterminated (in words),[2],not repelling stink bugs
same,Corrected repelling rate (%) Stinkbugs,[2]; [4],∘
